Experimental data published in publication PMC9496453 (2022).
Each block holds one molecule with its values, some of them ahead of it.

Columns and labels:
[1] = tested on: OTC5 (DNA, aptamer) GACGACATTCCGTTGATCTCTCCCTTTTGGGTTGGTGTCGTC; assay: intrinsic fluorescence enhancement titration; details: 50 mM NaCl, 2 mM MgCl2, 10 mM Tris HCl pH 8.3, binding lost without Mg2+
[2] = tested on: OTC5 (DNA, aptamer) GACGACATTCCGTTGATCTCTCCCTTTTGGGTTGGTGTCGTC; assay: ITC; details: 2 mM Mg2+; 10 mM Tris pH 8.3; 0.2 μM at pH 6.0 (10 mM MES)

KD ([1]; 0.36 µM at acidic pH (printed 6.3)): 160 nM
Compound: CN(C)[C@@H]1C(=O)C(C(N)=O)=C(O)[C@@]2(O)C(=O)C3=C(O)c4c(O)cccc4[C@@](C)(O)[C@H]3C[C@@H]12

KD ([1]; 0.39 µM at pH 6.0): 240 nM
Compound: C[C@H]1c2cccc(O)c2C(=O)C2=C(O)[C@]3(O)C(=O)C(C(N)=O)=C(O)[C@@H](N(C)C)[C@@H]3[C@@H](O)[C@@H]21

KD [2]: 30 nM
KD ([1]; 0.14 µM at acidic pH (printed 6.3)): 60 nM
Compound: CN(C)[C@@H]1C(=O)C(C(N)=O)=C(O)[C@@]2(O)C(=O)C3=C(O)c4c(O)cccc4[C@@](C)(O)[C@H]3[C@H](O)[C@@H]12
